In patent US20160015743A1, “METHODS FOR TREATING CANCER” (priority 2013, published 2016):
Where a SMILES comes first, the peptide text is derived from it. The star is where a group is joined. Cbz = O=C(OCc1ccccc1)*

Experiments:
cyclin D1 [1] = biological target: T1, cyclin D1 (Homo sapiens, UniProt P24385); experiment: In vivo SUMOylation and ubiquitylation assay (co-immunoprecipitation, western blotting); assay type: cell-based
T1 construct: endogenous in cells; host or cells: HCT-116
Protocol: (§1) (a, b&d) In vivo SUMOylation and ubiquitination assay. As for (a), HCT-116 cells were treated with As2O3 for 16 h (2.5 μM). Cell lysates were harvested at different time points (0, 1, 4 and 16 h). As for (b), WT or mutant cyclin D1 (K149R, T286A, DM) construct was stably transfected into HCT-116 cells. Then the cells were treated with As2O3 for 1 h. As for (d), HCT-116 cells were treated with As2O3 for 16 h (2.5 μM) in the absence or presence of MG132 (10 μM, 6 h of incubation). The SUMOylated and ubiquitylated cyclin D1 was detected as described in FIG. 1f. Cyclin D1 protein levels were detected using anti-cyclin D1 antibody (a&d) or anti-HA-antibody (b) by western blotting. (c) WT or mutant cyclin D1 (K149R, T286A, DM) construct was stably transfected into HCT-116 cells. Then the cells were treated with As2O3 for 16 h. Cyclin D1 protein levels were detected using anti-HA-antibody by western blotting. (e) TUNEL staining. WT or mutant cyclin D1 (K149R, T286A) construct was stably transfected into HCT-116 cells. Then the cells were treated with As2O3 (2.5 μM) for 16 h. The apoptotic cells were detected using Promega's DEADEND Colorimetric TUNEL System. Yellow arrows are pointing at apoptotic cells. (f) Flow cytometry. WT or mutant cyclin D1 (K149R) construct was stably transfected into HCT-116 cells. Then the cells were treated with As2O3 for 16 h (2.5 μM). Cell cycle progression was detected by flow cytometry. (As, arsenic trioxide)
(§2) SUMOylated cyclin D1 or ubiquitylated cyclin D1 was detected by co-immunoprecipitation using anti-SUMO-2/3 antibody or anti-ubiquitin antibody conjugated beads (Enzo Life Science), followed by immunoblotting with anti-cyclin D1 antibody or anti-HA antibody for cyclin D1 detection.

cyclin D1 [2] = experiment: Cyclin D1 protein levels by western blotting in transfected HEK293 cells with or without MG132; assay type: cell-based, human
Protocol: Ubc9 (a), SUMO1 (b), SUMO2 (c), SUMO3 (d) together with SENP1 constructs was co-transfected with cyclin D1 into HEK293 cells in the absence or presence of proteasome inhibitor MG132 (10 μM, 6 h of incubation). Cyclin D1 protein levels were detected through western blotting. (e) siRNA specific for Ubc9 was transiently transfected in human colon cancer cell HCT116 cells. Endogenous cyclin D1 protein levels were detected through western blotting. (f) In vivo SUMOylation and ubiquitination assay. HA-cyclin D1 was co-transfected with Ubc9 and SENP1 expression plasmids into HEK293 cells in the presence of MG132 (10 μM, 6 h of incubation). […]
(a) Cell lysates were extracted from different tissues of wt or Itch-KO mice. Endogenous cyclin D1 protein levels were detected using anti-cyclin D1 antibody by western blotting. […] Endogenous cyclin D1 protein levels were detected using anti-cyclin D1 antibody by western blotting. […] Cyclin D1 protein levels were detected using anti-HA antibody by western blotting. […] 24 h after transfection, the cell lysates were collected, the ubiquitylated cyclin D1 was detected as described in FIG. 1f. […] Cyclin D1 protein levels were detected using anti-HA antibody by western blotting. […]
Western blotting and immunoprecipitation (IP) were performed as previously described (54). The interaction between endogenous Cyclin D1 and Itch was determined in HEK293 cells. […]

cyclin D1 [3] = biological target: T2, cyclin D1 (Homo sapiens, UniProt P24385, T286A); experiment: In vivo SUMOylation and ubiquitylation assay (co-immunoprecipitation, western blotting); assay type: cell-based; settings: HCT-116 cells stably expressing T286A mutant cyclin D1, treated 1 and 16 hours
T2 construct: endogenous in cells; host or cells: HCT-116
Protocol: as §1, §2

solid and liquid tumors = settings: references 48-51; cited from earlier work
tumor = settings: reference 52; cited from earlier work
HCT-116 cells [4] = experiment: TUNEL staining of apoptotic cells; assay type: cell-based, human; settings: 16 h
Protocol: as §1
Cell apoptosis was detected using fluorescent in situ terminal deoxynucleotidyl transferase-mediated uridine 5′-triphosphate-biotin nick end labeling (TUNEL staining). Sections were first permeabilized in 0.1% Triton X-100 in phosphate-buffered saline (PBS) for 8 mins. TUNEL reaction mixture was obtained by adding terminal deoxynucleotidyl transferase to nucleotide mixture, as instructed by the manufacturer's manual (DEADEND Fluorometric TUNEL System, Promega). Sections were counterstained nuclei with 4′-6-Diamidino-2-phenylindole (DAPI).

cyclin D1 [5] = biological target: T3, cyclin D1 (Homo sapiens, UniProt P24385, K149R); experiment: Cyclin D1 protein levels by western blotting in HCT-116 cells; assay type: cell-based; settings: HCT-116 cells stably expressing K149R mutant cyclin D1, treated 16 h
T3 construct: endogenous in cells; host or cells: HCT-116
Protocol: as §1
(§3) 48 h later, the cyclin D1 protein levels were detected through western blotting.
(§4) Western blotting and immunoprecipitation (IP) were performed as previously described (54). The interaction between endogenous Cyclin D1 and Itch was determined in HEK293 cells. Proteasome inhibitor MG132 (10 μM) (Sigma, St. Louis, Mo.) was added to the cell culture 6 hours before cells were harvested for immunoprecipitation assay. […]

cyclin D1 [6] = experiment: as above; assay type: cell-based, human; settings: HCT-116 cells, Itch siRNA, As2O3 2.5 μM, 48 h
Protocol: as §1, §3, §4

cyclin D1 [7] = biological target: T4, cyclin D1 (Homo sapiens, UniProt P24385, K149R/T286A); experiment: as above; assay type: cell-based; settings: HCT-116 cells stably expressing K149R/T286A mutant cyclin D1, treated 16 h
T4 construct: endogenous in cells; host or cells: HCT-116
Protocol: as §1, §3, §4

HCT-116 cells [8] = experiment: Cell cycle analysis by flow cytometry; assay type: cell-based, human; settings: HCT-116 cells transfected with K149R mutant cyclin D1 compared with WT, As2O3 2.5 μM, 16 h
Protocol: as §1, with “WT or mutant cyclin D1 (K149R, T286A) construct was stably transfected into HCT-116 cells. Then the cells were treated with As2O3 (2.5 μM) for 16 h.” left out, “Yellow arrows are pointing at apoptotic cells. (f) Flow cytometry. WT or mutant cyclin D1 (K149R) construct was stably transfected into HCT-116 cells. Then the cells were treated with As2O3 for 16 h (2.5 μM).” left out, “(As, arsenic trioxide)” left out
FACS analysis was performed as described in the research by Santra et al (55). […] FACS samples were analyzed with a FACSCANTO Flow Cytometry System (BD Biosciences). And the data were analyzed using FlowJo 7.6 software according to the manufacturer's instruction.

T1 sequence (P24385 whole entry): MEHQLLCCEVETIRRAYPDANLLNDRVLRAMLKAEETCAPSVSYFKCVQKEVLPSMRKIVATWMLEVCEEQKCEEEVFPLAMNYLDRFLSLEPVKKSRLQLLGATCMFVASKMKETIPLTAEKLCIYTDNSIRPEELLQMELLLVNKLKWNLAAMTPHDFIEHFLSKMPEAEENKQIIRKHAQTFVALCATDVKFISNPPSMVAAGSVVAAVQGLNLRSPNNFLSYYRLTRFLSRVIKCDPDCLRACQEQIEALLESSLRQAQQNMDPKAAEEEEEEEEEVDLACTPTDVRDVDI
T4 sequence (P24385 whole entry K149R/T286A): as the sequence (P24385 whole entry) above, with K149R, T286A counted along it
T2 sequence (P24385 whole entry T286A): as the sequence (P24385 whole entry) above, with T286A counted along it
T3 sequence (P24385 whole entry K149R): as the sequence (P24385 whole entry) above, with K149R counted along it

Row | Compound | effect on As2O3-mediated cyclin D1 SUMOylation and polyubiquitination (cyclin D1 [1]; HCT-116 cells, As2O3 2.5 μM 16 h, MG132 10 μM 6 h) | effect on Itch-induced cyclin D1 degradation (cyclin D1 [2]; HEK293 cells co-transfected with Itch and cyclin D1, MG132 10 μM 6 h) | effect on degradation of cyclin D1 caused by Ubc9 (cyclin D1 [2]; HEK293 cells co-transfected with Ubc9 and cyclin D1, MG132 10 μM 6 h) | SUMOylation, polyubiquitination and degradation of cyclin D1 (cyclin D1 [3]) | SUMOylation, polyubiquitination and degradation of cyclin D1 (cyclin D1 [1]; HCT-116 cells stably expressing WT cyclin D1, treated 1 and 16 hours) | SUMOylated- and polyubiquitinated-cyclin D1 (cyclin D1 [1]; HCT-116 cells, As2O3 2.5 μM, 1 h after treatment) | modified (SUMOylated/polyubiquitinated) cyclin D1 (cyclin D1 [1]; HCT-116 cells, As2O3 2.5 μM, after 16 h treatment) | cell apoptosis in solid and liquid tumors (solid and liquid tumors) | tumor size in nude mice (tumor) | cell apoptosis (TUNEL) (HCT-116 cells [4]; HCT-116 cells stably transfected with K149R mutant cyclin D1, As2O3 2.5 μM) | cell apoptosis (TUNEL) (HCT-116 cells [4]; HCT-116 cells stably transfected with K149R mutant cyclin D1, As2O3 2.5 μM, listed as arsenic trioxide) | cell apoptosis (TUNEL) (HCT-116 cells [4]; HCT-116 cells stably transfected with T286A cyclin D1, As2O3 2.5 μM) | cell apoptosis (TUNEL) (HCT-116 cells [4]; HCT-116 cells stably transfected with WT cyclin D1, As2O3 2.5 μM) | degradation of cyclin D1 (cyclin D1 [5]) | degradation of cyclin D1 under silencing of Itch expression (cyclin D1 [6]) | degradation of cyclin D1 (cyclin D1 [7]) | G1 arrest (HCT-116 cells [8])
1 | CC(C)C[C@@H](C=O)NC(=O)[C@H](CC(C)C)NC(=O)[C@H](CC(C)C)NC(=O)OCc1ccccc1 [MG132] (Cbz-Leu-Leu-Leu-aldehyde) | reversed | reversed the effect of Itch on cyclin D1 degradation | reversed the degradation of cyclin D1 | – | – | – | – | – | – | – | – | – | – | – | – | – | –
2 | arsenic trioxide [As2O3] | – | – | – | induced SUMOylation, polyubiquitination and degradation of cyclin D1 | induced SUMOylation, polyubiquitination and degradation of cyclin D1 | accumulated | disappeared | induces cell apoptosis | tumor shrink | much lower | significantly decreased | induced accelerated cell apoptosis | induced accelerated cell apoptosis | no effect | did not abrogated degradation of cyclin D1 | no effect | failed to induce efficient G1 arrest
